Experimental findings from US7517874B2 (priority 2007, dated 2009) are described below.

For test [1], the target named is human CB1 receptor (hCB1) (Homo sapiens, UniProt P21554). Nature of the test: cell-based. The class given is cell-based. The note with it: for +/− HCB1: agonist or inverse agonist at hCB1. An outline of the steps:
(§1)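 Agonism or inverse agonism was assessed as change in intracellular cAMP in CHO-K1 cells expressing human CB1 or rat CB2 (genomic DNA, pcDNA3.1).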

A further test has as its target T1, rat CB2 receptor (rCB2) (Rattus norvegicus, UniProt Q9QZN9).
T1 sequence (Q9QZN9 1-360): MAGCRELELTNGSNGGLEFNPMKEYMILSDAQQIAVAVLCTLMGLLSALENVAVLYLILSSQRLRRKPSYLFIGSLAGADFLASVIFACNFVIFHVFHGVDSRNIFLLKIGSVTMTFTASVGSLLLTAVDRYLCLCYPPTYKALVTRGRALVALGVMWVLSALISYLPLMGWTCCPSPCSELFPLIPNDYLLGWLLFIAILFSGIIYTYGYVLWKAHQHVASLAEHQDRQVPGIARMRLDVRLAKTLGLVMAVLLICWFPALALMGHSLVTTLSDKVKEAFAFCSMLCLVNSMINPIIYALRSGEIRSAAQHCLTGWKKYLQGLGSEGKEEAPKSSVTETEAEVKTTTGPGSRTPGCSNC
Put plainly: cell-based. It is filed as cell-based. As to conditions: for +/− RCB2: agonist or inverse agonist at rCB2. In a few lines: as §1

Where only a bound is given, the exact number is not on record here.

Sequence of human CB1 receptor (hCB1) (P21554 whole entry): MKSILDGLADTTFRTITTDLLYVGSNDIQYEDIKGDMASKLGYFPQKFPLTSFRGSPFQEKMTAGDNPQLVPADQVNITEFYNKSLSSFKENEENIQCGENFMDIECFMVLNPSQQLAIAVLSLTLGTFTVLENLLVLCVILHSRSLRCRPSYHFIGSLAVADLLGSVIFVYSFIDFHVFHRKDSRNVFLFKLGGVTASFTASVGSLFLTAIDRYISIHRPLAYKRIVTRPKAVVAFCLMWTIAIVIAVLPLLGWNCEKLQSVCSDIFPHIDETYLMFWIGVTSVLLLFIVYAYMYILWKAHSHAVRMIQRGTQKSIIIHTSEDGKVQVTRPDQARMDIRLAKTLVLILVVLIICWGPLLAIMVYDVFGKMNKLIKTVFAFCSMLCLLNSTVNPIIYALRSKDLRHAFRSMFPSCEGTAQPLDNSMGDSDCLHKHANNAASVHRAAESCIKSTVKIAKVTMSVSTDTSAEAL

Take `CNC(=O)[C@@H](NC(=O)c1nc(-c2ccc(C)c(F)c2)n2c1CN(C)CCC2)C(C)(C)C` [Compound 360, (S)-N-(3,3-dimethyl-1-(methylamino)-1-oxobutan-2-yl)-3-(3-fluoro-4-methylphenyl)-8-methyl-6,7,8,9-tetrahydro-5H-imidazo[1,5-a][1,4]diazepine-1-carboxamide]: the concentration for a half-maximal effect (EC50) (in test [1]; at rat CB2 receptor (rCB2)) was > 10 µM each time.
With `CNC(=O)[C@@H](NC(=O)c1nc(-c2cc(Cl)ccc2F)n2c1CN(C)CCC2)C(C)(C)C` [Compound 361, (S)-3-(5-chloro-2-fluorophenyl)-N-(3,3-dimethyl-1-(methylamino)-1-oxobutan-2-yl)-8-methyl-6,7,8,9-tetrahydro-5H-imidazo[1,5-a][1,4]diazepine-1-carboxamide], the “+/− HCB1” value in test [1] is recorded as “+”. In addition, the “+/− RCB2” value on rat CB2 receptor (rCB2) is “+”.
On to `CNC(=O)[C@@H](NC(=O)c1nc(-c2cc(C)ccc2F)n2c1CN(C)CCC2)C(C)(C)C` [Compound 362, (S)-N-(3,3-dimethyl-1-(methylamino)-1-oxobutan-2-yl)-3-(2-fluoro-5-methylphenyl)-8-methyl-6,7,8,9-tetrahydro-5H-imidazo[1,5-a][1,4]diazepine-1-carboxamide], for which the EC50 in test [1] was > 10 µM. Besides, the “+/− RCB2” value on rat CB2 receptor (rCB2) was “+”.
In the same order, the values of `CNC(=O)[C@@H](NC(=O)c1nc(-c2cc(C(F)(F)F)ccc2F)n2c1CN(C)CCC2)C(C)(C)C` [Compound 363, (S)-N-(3,3-dimethyl-1-(methylamino)-1-oxobutan-2-yl)-3-(2-fluoro-5-(trifluoromethyl)phenyl)-8-methyl-6,7,8,9-tetrahydro-5H-imidazo[1,5-a][1,4]diazepine-1-carboxamide] are > 10 µM and “−”.
The like results for `CNC(=O)[C@@H](NC(=O)c1nc(-c2cccc(C(F)(F)F)c2F)n2c1CN(C)CCC2)C(C)(C)C` [Compound 364, (S)-N-(3,3-dimethyl-1-(methylamino)-1-oxobutan-2-yl)-3-(2-fluoro-3-(trifluoromethyl)phenyl)-8-methyl-6,7,8,9-tetrahydro-5H-imidazo[1,5-a][1,4]diazepine-1-carboxamide] were, in that order, > 10 µM and “−”.
Turning to `CNC(=O)[C@@H](NC(=O)c1nc(-c2c(F)cccc2OC)n2c1CN(C)CCC2)C(C)(C)C` [Compound 365, N-((S)-3,3-dimethyl-1-(methylamino)-1-oxobutan-2-yl)-3-(2-fluoro-6-methoxyphenyl)-8-methyl-6,7,8,9-tetrahydro-5H-imidazo[1,5-a][1,4]diazepine-1-carboxamide], in test [1], the concentration for a half-maximal effect (EC50) is > 10 µM. In addition, at rat CB2 receptor (rCB2), the “+/− RCB2” value was “+”.
For the compound `CNC(=O)[C@@H](NC(=O)c1nc(-c2ccc(C)cc2Cl)n2c1CN(C)CCC2)C(C)(C)C` [Compound 367, (S)-3-(2-chloro-4-methylphenyl)-N-(3,3-dimethyl-1-(methylamino)-1-oxobutan-2-yl)-8-methyl-6,7,8,9-tetrahydro-5H-imidazo[1,5-a][1,4]diazepine-1-carboxamide], the EC50 (in test [1]; on rat CB2 receptor (rCB2)) was > 10 µM in each case.
With `CNC(=O)[C@@H](NC(=O)c1nc(-c2ccc(C(F)(F)F)cc2F)n2c1CN(C)CCC2)C(C)(C)C` [Compound 368, (S)-N-(3,3-dimethyl-1-(methylamino)-1-oxobutan-2-yl)-3-(2-fluoro-4-(trifluoromethyl)phenyl)-8-methyl-6,7,8,9-tetrahydro-5H-imidazo[1,5-a][1,4]diazepine-1-carboxamide], the “+/− HCB1” value in test [1] is recorded as “+”. Besides, on rat CB2 receptor (rCB2), the “+/− RCB2” value is listed as “+”.
For the compound `CNC(=O)[C@@H](NC(=O)c1nc(-c2cccc(F)c2F)n2c1CN(C)CCC2)C(C)(C)C` [Compound 369, (S)-3-(2,3-difluorophenyl)-N-(3,3-dimethyl-1-(methylamino)-1-oxobutan-2-yl)-8-methyl-6,7,8,9-tetrahydro-5H-imidazo[1,5-a][1,4]diazepine-1-carboxamide], in test [1], the EC50 is > 10 µM. The “+/− RCB2” value on rat CB2 receptor (rCB2) is on record as “+”.
Consider `CNC(=O)[C@@H](NC(=O)c1nc(-c2cc(Cl)c(F)cc2F)n2c1CN(C)CCC2)C(C)(C)C` [Compound 370, (S)-3-(5-chloro-2,4-difluorophenyl)-N-(3,3-dimethyl-1-(methylamino)-1-oxobutan-2-yl)-8-methyl-6,7,8,9-tetrahydro-5H-imidazo[1,5-a][1,4]diazepine-1-carboxamide], for which the concentration for a half-maximal effect (EC50) in test [1] was > 10 µM. Besides, the “+/− RCB2” value at rat CB2 receptor (rCB2) was “+”.
On to `CNC(=O)[C@@H](NC(=O)c1nc(-c2cc(F)c(F)cc2F)n2c1CN(C)CCC2)C(C)(C)C` [Compound 371, (S)-N-(3,3-dimethyl-1-(methylamino)-1-oxobutan-2-yl)-8-methyl-3-(2,4,5-trifluorophenyl)-6,7,8,9-tetrahydro-5H-imidazo[1,5-a][1,4]diazepine-1-carboxamide], for which the “+/− HCB1” value in test [1] was “+”. The “+/− RCB2” value at rat CB2 receptor (rCB2) was “+”.
As for `CNC(=O)[C@@H](NC(=O)c1nc(-c2ccc(F)c(Cl)c2)n2c1CN(C)CCC2)C(C)(C)C` [Compound 372, (S)-3-(3-chloro-4-fluorophenyl)-N-(3,3-dimethyl-1-(methylamino)-1-oxobutan-2-yl)-8-methyl-6,7,8,9-tetrahydro-5H-imidazo[1,5-a][1,4]diazepine-1-carboxamide], the concentration for a half-maximal effect (EC50) in test [1] was > 10 µM. The “+/− RCB2” value at rat CB2 receptor (rCB2) is listed as “+”.
Turning to `CNC(=O)[C@@H](NC(=O)c1nc(-c2ccc(Cl)c(F)c2)n2c1CN(C)CCC2)C(C)(C)C` [Compound 373], the EC50 in test [1] is > 10 µM. Further, the “+/− RCB2” value on rat CB2 receptor (rCB2) is “+”.
For the compound `CNC(=O)[C@@H](NC(=O)c1nc(-c2cc(F)c(F)c(F)c2)n2c1CN(C)CCC2)C(C)(C)C` [Compound 375, (S)-N-(3,3-dimethyl-1-(methylamino)-1-oxobutan-2-yl)-8-methyl-3-(3,4,5-trifluorophenyl)-6,7,8,9-tetrahydro-5H-imidazo[1,5-a][1,4]diazepine-1-carboxamide], the half-maximal effective concentration (EC50) in test [1] was > 10 µM. The “+/− RCB2” value at rat CB2 receptor (rCB2) is on record as “+”.
In the same order, the values of `C/C=C/c1nc(C(=O)N[C@H](C(=O)NC)C(C)(C)C)c2n1CCCN(C)C2` [Compound 376, (S,E)-N-(3,3-dimethyl-1-(methylamino)-1-oxobutan-2-yl)-8-methyl-3-(prop-1-enyl)-6,7,8,9-tetrahydro-5H-imidazo[1,5-a][1,4]diazepine-1-carboxamide] are > 10 µM and “+”.
In the same order, the values of `CNC(=O)[C@@H](NC(=O)c1nc(C=C(C)C)n2c1CN(C)CCC2)C(C)(C)C` [Compound 377, (S)-N-(3,3-dimethyl-1-(methylamino)-1-oxobutan-2-yl)-8-methyl-3-(2-methylprop-1-enyl)-6,7,8,9-tetrahydro-5H-imidazo[1,5-a][1,4]diazepine-1-carboxamide] are > 10 µM and “+”.
In the same order, the values of `CNC(=O)[C@@H](NC(=O)c1nc(-c2ccc(N3CCOCC3)cc2)n2c1CN(C)CCC2)C(C)(C)C` [Compound 378, (S)-N-(3,3-dimethyl-1-(methylamino)-1-oxobutan-2-yl)-8-methyl-3-(4-morpholinophenyl)-6,7,8,9-tetrahydro-5H-imidazo[1,5-a][1,4]diazepine-1-carboxamide] are > 10 µM and “−”.
`CNC(=O)[C@@H](NC(=O)c1nc(-c2ccc(S(C)(=O)=O)cc2)n2c1CN(C)CCC2)C(C)(C)C` [Compound 379, (S)-N-(3,3-dimethyl-1-(methylamino)-1-oxobutan-2-yl)-8-methyl-3-(4-(methylsulfonyl)phenyl)-6,7,8,9-tetrahydro-5H-imidazo[1,5-a][1,4]diazepine-1-carboxamide]: the half-maximal effective concentration (EC50) (in test [1]; at rat CB2 receptor (rCB2)) was > 10 µM in each case.
Take `CNC(=O)[C@@H](NC(=O)c1nc(-c2ccc3ccccc3c2)n2c1CN(C)CCC2)C(C)(C)C` [Compound 380, (S)-N-(3,3-dimethyl-1-(methylamino)-1-oxobutan-2-yl)-8-methyl-3-(naphthalen-2-yl)-6,7,8,9-tetrahydro-5H-imidazo[1,5-a][1,4]diazepine-1-carboxamide]: in test [1], the EC50 was > 10 µM. Moreover, the “+/− RCB2” value at rat CB2 receptor (rCB2) is “−”.
`CNC(=O)[C@@H](NC(=O)c1nc(-c2ccc(N(C)C)cc2)n2c1CN(C)CCC2)C(C)(C)C` [Compound 381, (S)-N-(3,3-dimethyl-1-(methylamino)-1-oxobutan-2-yl)-3-(4-(dimethylamino)phenyl)-8-methyl-6,7,8,9-tetrahydro-5H-imidazo[1,5-a][1,4]diazepine-1-carboxamide]: the concentration for a half-maximal effect (EC50) in test [1] was > 10 µM. Further, the “+/− RCB2” value at rat CB2 receptor (rCB2) is “−”.
As for `CNC(=O)[C@@H](NC(=O)c1nc(-c2cccc(N(C)C)c2)n2c1CN(C)CCC2)C(C)(C)C` [Compound 382, (S)-N-(3,3-dimethyl-1-(methylamino)-1-oxobutan-2-yl)-3-(3-(dimethylamino)phenyl)-8-methyl-6,7,8,9-tetrahydro-5H-imidazo[1,5-a][1,4]diazepine-1-carboxamide], the concentration for a half-maximal effect (EC50) in test [1] is > 10 µM. The “+/− RCB2” value at rat CB2 receptor (rCB2) is recorded as “−”.
In the same order, the values of `CNC(=O)[C@@H](NC(=O)c1nc(-c2cccc(-c3ccccc3)c2)n2c1CN(C)CCC2)C(C)(C)C` [Compound 383, (S)-3-(biphenyl-3-yl)-N-(3,3-dimethyl-1-(methylamino)-1-oxobutan-2-yl)-8-methyl-6,7,8,9-tetrahydro-5H-imidazo[1,5-a][1,4]diazepine-1-carboxamide] are > 10 µM and “−”.

The EC50 is the concentration giving half of the maximal effect. Read a high EC50 as a less potent agent.
